From patent US20100267561A1, “HERBICIDAL PYRIDAZINONE DERIVATIVES” (priority 2007, published 2010)

Tests used:
Assay in all cases: Test B pre-/postemergence plant response
Assay type in all cases: in vivo
[1] = test system: Italian ryegrass (Lolium multiflorum)
Description: (§1) Seeds of plant species selected from blackgrass (Alopecurus myosuroides), downy bromegrass (Bromus tectorum), green foxtail (Setaria viridis), Italian ryegrass (Lolium multiflorum), wheat (Triticum aestivum), wild oat (Avena fatua), catchweed bedstraw (Galium aparine), bermudagrass (Cynodon dactylon), surinam grass (Brachiaria decumbens), cocklebur (Xanthium strumarium), corn (Zea mays), large crabgrass (Digitaria sanguinalis), woolly cupgrass (Eriochloa villosa), giant foxtail (Setaria faberii), goosegrass (Eleusine indica), johnsongrass (Sorghum halepense), kochia (Kochia scoparia), lambsquarters (Chenopodium album), morningglory (Ipomoea coccinea), eastern black (E.B.) nightshade (Solanum ptycanthum), yellow nutsedge (Cyperus esculentus), pigweed (Amaranthus retroflexus), common ragweed (Ambrosia elation), Russian thistle (Salsola iberica), soybean (Glycine max), common (oilseed) sunflower (Helianthus annuus), and velvetleaf (Abutilon theophrasti) were planted and treated preemergence with test chemicals formulated in a non-phytotoxic solvent mixture which included a surfactant.
(§2) At the same time, plants selected from these crop and weed species and also winter barley (Hordeum vulgare), canarygrass (Phalaris minor), chickweed (Stellaria media) and windgrass (Apera spica-venti) were treated with postemergence applications of some of the test chemicals formulated in the same manner. Plants ranged in height from 2 to 18 cm (1- to 4-leaf stage) for postemergence treatments.
(§3) Plant species in the flooded paddy test consisted of rice (Oryza sativa), umbrella sedge (Cyperus difformis), ducksalad (Heteranthera limosa) and barnyardgrass (Echinochloa crus-galli) grown to the 2-leaf stage for testing. At time of treatment, test pots were flooded to 3 cm above the soil surface, treated by application of test compounds directly to the paddy water, and then maintained at that water depth for the duration of the test. Treated plants and controls were maintained in a greenhouse for 13 to 15 days, after which time all species were compared to controls and visually evaluated. Plant response ratings, summarized in Table B, are based on a scale of 0 to 100 where 0 is no effect and 100 is complete control. A dash (-) response means no test result.

[2] = test system: blackgrass (Alopecurus myosuroides); conditions: for Blackgrass plant response rating: 8 g ai/ha
Description: as §1, §2, §3

[3] = test system: catchweed bedstraw (Galium aparine); conditions: Preemergence; for Galium plant response rating: scale 0 to 100
Description: as §1, §2, §3

[4] = test system: downy bromegrass (Bromus tectorum); conditions: for Bromegrass, Downy plant response rating: 8 g ai/ha
Description: as §1, §2, §3

[5] = test system: eastern black (E.B.) nightshade (Solanum ptycanthum); conditions: Preemergence; for Nightshade, E. B. plant response rating: scale 0 to 100
Description: as §1, §2, §3

[6] = test system: giant foxtail (Setaria faberii)
Description: as §1, §2, §3

[7] = test system: green foxtail (Setaria viridis)
Description: as §1, §2, §3

[8] = test system: johnsongrass (Sorghum halepense)
Description: as §1, §2, §3

[9] = test system: morningglory (Ipomoea coccinea)
Description: as §1, §2, §3

[10] = test system: pigweed (Amaranthus retroflexus)
Description: as §1, §2, §3

[11] = test system: velvetleaf (Abutilon theophrasti)
Description: as §1, §2, §3

wild oat (Avena fatua) = test system: wild oat (Avena fatua)
Description: as §1, §2, §3

[12] = test system: woolly cupgrass (Eriochloa villosa); conditions: for Cupgrass, Woolly plant response rating: 8 g ai/ha
Description: as §1, §2, §3

[13] = test system: yellow nutsedge (Cyperus esculentus)
Description: as §1, §2, §3

[14] = 8 g ai/ha, postemergence, 0-100 scale
[15] = 16 g ai/ha, postemergence, 0-100 scale
[16] = Postemergence, 31 g ai/ha, scale 0 to 100
[17] = Postemergence, 62 g ai/ha, scale 0 to 100, 0 no effect, 100 complete control
[18] = Preemergence, 31 g ai/ha, scale 0 to 100 (0 no effect, 100 complete control)
[19] = Preemergence, 62 g ai/ha, 0 to 100 scale, 0 no effect, 100 complete control
[20] = Preemergence, 8 g ai/ha, scale 0 to 100
[21] = Preemergence, 16 g ai/ha, scale 0 to 100
[22] = Postemergence, 16 g ai/ha, scale 0 to 100
[23] = Preemergence, 16 g ai/ha, scale 0 to 100 (0 no effect, 100 complete control)
[24] = 31 g ai/ha, scale 0 to 100 (0 no effect, 100 complete control)
[25] = 62 g ai/ha, 0 to 100 scale, 0 no effect, 100 complete control

SMILES: CCCc1cc(-c2ccc(C(F)(F)F)cc2)nn1-c1c(O)cnn(C)c1=O [Compound 72]
- Ryegrass, Italian plant response rating [1, 14]: 80
- Ryegrass, Italian plant response rating [1, 15]: 100
- Plant response rating, Ryegrass, Italian [1, 16]: 100
- Plant response rating, Ryegrass, Italian [1, 17]: 100
- Plant response rating, Ryegrass, Italian [1, 18]: 100
- Plant response rating, Ryegrass, Italian [1, 19]: 100
- Ryegrass, Italian plant response rating [1, 20]: 75
- Ryegrass, Italian plant response rating [1, 21]: 90
- Blackgrass plant response rating ([2]; postemergence, 0-100 scale): 80
- Plant response rating, Blackgrass [2, 22]: 95
- Plant response rating, Blackgrass [2, 16]: 98
- Plant response rating, Blackgrass [2, 17]: 100
- Plant response rating, Blackgrass [2, 23]: 90
- Plant response rating, Blackgrass [2, 18]: 95
- Plant response rating, Blackgrass [2, 19]: 100
- Blackgrass plant response rating ([2]; Preemergence, scale 0 to 100): 60
- Plant response rating, Galium [3, 24]: 0
- Plant response rating, Galium [3, 25]: 0
- Galium plant response rating ([3]; 8 g ai/ha): 0
- Galium plant response rating ([3]; 16 g ai/ha): 0
- Bromegrass, Downy plant response rating ([4]; postemergence, 0-100 scale): 20
- Plant response rating, Bromegrass, Downy [4, 22]: 30
- Plant response rating, Bromegrass, Downy [4, 16]: 30
- Plant response rating, Bromegrass, Downy [4, 17]: 30
- Plant response rating, Bromegrass, Downy [4, 23]: 30
- Plant response rating, Bromegrass, Downy [4, 18]: 50
- Plant response rating, Bromegrass, Downy [4, 19]: 95
- Bromegrass, Downy plant response rating ([4]; Preemergence, scale 0 to 100): 0
- Plant response rating, Nightshade, E. B. [5, 24]: 0
- Plant response rating, Nightshade, E. B. [5, 25]: 30
- Nightshade, E. B. plant response rating ([5]; 8 g ai/ha): 0
- Nightshade, E. B. plant response rating ([5]; 16 g ai/ha): 0
- Foxtail, Giant plant response rating [6, 14]: 95
- Plant response rating, Foxtail, Giant [6, 22]: 100
- Plant response rating, Foxtail, Giant [6, 16]: 100
- Plant response rating, Foxtail, Giant [6, 17]: 100
- Plant response rating, Foxtail, Giant [6, 18]: 100
- Plant response rating, Foxtail, Giant [6, 19]: 100
- Foxtail, Giant plant response rating [6, 20]: 70
- Foxtail, Giant plant response rating [6, 21]: 85
- Foxtail, Green plant response rating [7, 14]: 98
- Plant response rating, Foxtail, Green [7, 22]: 98
- Plant response rating, Foxtail, Green [7, 16]: 100
- Plant response rating, Foxtail, Green [7, 17]: 100
- Plant response rating, Foxtail, Green [7, 18]: 100
- Plant response rating, Foxtail, Green [7, 19]: 100
- Foxtail, Green plant response rating [7, 20]: 25
- Foxtail, Green plant response rating [7, 21]: 100
- Johnsongrass plant response rating [8, 14]: 70
- Johnsongrass plant response rating [8, 15]: 75
- Plant response rating, Johnsongrass [8, 17]: 100
- Plant response rating, Johnsongrass [8, 18]: 95
- Plant response rating, Johnsongrass [8, 19]: 100
- Johnsongrass plant response rating [8, 20]: 50
- Johnsongrass plant response rating [8, 21]: 55
- Morningglory plant response rating [9, 14]: 0
- Morningglory plant response rating [9, 15]: 0
- Plant response rating, Morningglory [9, 16]: 0
- Plant response rating, Morningglory [9, 17]: 0
- Plant response rating, Morningglory [9, 18]: 0
- Plant response rating, Morningglory [9, 19]: 0
- Morningglory plant response rating [9, 20]: 0
- Morningglory plant response rating [9, 21]: 0
- Pigweed plant response rating [10, 14]: 0
- Pigweed plant response rating [10, 15]: 0
- Plant response rating, Pigweed [10, 16]: 0
- Plant response rating, Pigweed [10, 17]: 0
- Plant response rating, Pigweed [10, 18]: 0
- Plant response rating, Pigweed [10, 19]: 50
- Pigweed plant response rating [10, 20]: 0
- Pigweed plant response rating [10, 21]: 0
- Velvetleaf plant response rating [11, 14]: 0
- Velvetleaf plant response rating [11, 15]: 0
- Plant response rating, Velvetleaf [11, 16]: 0
- Plant response rating, Velvetleaf [11, 17]: 0
- Plant response rating, Velvetleaf [11, 18]: 0
- Plant response rating, Velvetleaf [11, 19]: 0
- Velvetleaf plant response rating [11, 20]: 0
- Velvetleaf plant response rating [11, 21]: 0
- Oat, Wild plant response rating (wild oat (Avena fatua); [14]): 100
- Oat, Wild plant response rating (wild oat (Avena fatua); [15]): 100
- Plant response rating, Oat, Wild (wild oat (Avena fatua); [16]): 100
- Plant response rating, Oat, Wild (wild oat (Avena fatua); [17]): 100
- Plant response rating, Oat, Wild (wild oat (Avena fatua); [18]): 95
- Plant response rating, Oat, Wild (wild oat (Avena fatua); [19]): 98
- Oat, Wild plant response rating (wild oat (Avena fatua); [20]): 60
- Oat, Wild plant response rating (wild oat (Avena fatua); [21]): 80
- Cupgrass, Woolly plant response rating ([12]; postemergence, 0-100 scale): 55
- Plant response rating, Cupgrass, Woolly [12, 22]: 80
- Plant response rating, Cupgrass, Woolly [12, 16]: 90
- Plant response rating, Cupgrass, Woolly [12, 17]: 90
- Plant response rating, Cupgrass, Woolly [12, 18]: 85
- Plant response rating, Cupgrass, Woolly [12, 19]: 100
- Cupgrass, Woolly plant response rating ([12]; Preemergence, scale 0 to 100): 70
- Nutsedge, Yellow plant response rating [13, 14]: 0
- Nutsedge, Yellow plant response rating [13, 15]: 0
- Plant response rating, Nutsedge, Yellow [13, 16]: 0
- Plant response rating, Nutsedge, Yellow [13, 17]: 0
- Plant response rating, Nutsedge, Yellow [13, 18]: 0
- Plant response rating, Nutsedge, Yellow [13, 19]: 0
- Nutsedge, Yellow plant response rating [13, 20]: 0
- Nutsedge, Yellow plant response rating [13, 21]: 0
